These results are taken from ChEMBL document CHEMBL4196183, “Discovery of New Allosteric Modulators of the Urotensinergic System through Substitution of the Urotensin II-Related Peptide (URP) Phenylalanine Residue” (J Med Chem, 2018).

For orientation: IC50 means the midpoint of a concentration-inhibition curve. Low readings indicate greater potency in that assay, high ones weaker potency in that assay. The Emax is the maximal effect, on the per cent scale that the assay sets. The EC50 is the concentration giving half of the maximal effect.

Structures are written as SMILES. Activity calls are given as the source filed them. The rule behind the calls is not given here.

The target of test [1] is T1, Urotensin-2 receptor (Homo sapiens, UniProt Q9UKP6).
T1 sequence (Q9UKP6 whole entry): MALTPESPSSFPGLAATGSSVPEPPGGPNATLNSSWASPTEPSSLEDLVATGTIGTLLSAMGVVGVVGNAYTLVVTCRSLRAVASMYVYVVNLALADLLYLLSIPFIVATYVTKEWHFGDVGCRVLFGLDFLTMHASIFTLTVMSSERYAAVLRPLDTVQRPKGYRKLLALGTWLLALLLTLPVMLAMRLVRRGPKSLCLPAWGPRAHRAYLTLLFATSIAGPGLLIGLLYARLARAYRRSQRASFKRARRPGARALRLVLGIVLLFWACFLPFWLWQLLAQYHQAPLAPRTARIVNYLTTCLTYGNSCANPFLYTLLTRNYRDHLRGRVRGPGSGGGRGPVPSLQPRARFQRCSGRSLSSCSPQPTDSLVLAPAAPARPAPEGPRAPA
The test can be described thus: Displacement of [Na125I]-synthetic URP from human UT receptor expressed in HEK293 cell membranes incubated for 2 hrs by gamma-counting.

For test [2], the target named is T2, Urotensin-2 receptor (Rattus norvegicus) (UniProt P49684).
T2 sequence (whole entry): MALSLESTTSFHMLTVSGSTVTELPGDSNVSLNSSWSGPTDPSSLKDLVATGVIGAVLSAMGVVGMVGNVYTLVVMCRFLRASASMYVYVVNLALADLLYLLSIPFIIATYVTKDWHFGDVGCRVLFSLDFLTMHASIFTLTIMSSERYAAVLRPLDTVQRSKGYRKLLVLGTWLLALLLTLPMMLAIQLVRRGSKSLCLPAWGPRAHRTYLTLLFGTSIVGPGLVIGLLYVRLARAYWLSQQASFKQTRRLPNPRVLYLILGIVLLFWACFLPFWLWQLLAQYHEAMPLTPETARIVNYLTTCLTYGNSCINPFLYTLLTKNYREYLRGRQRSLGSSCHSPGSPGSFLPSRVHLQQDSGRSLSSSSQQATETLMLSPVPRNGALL
Briefly: Agonist activity at UT receptor in Sprague-Dawley rat thoracic aortic ring assessed as induction of contraction relative to KCl-induced contraction. Type of test: functional.

The target in test [3] is T2, Urotensin-2 receptor (Rattus norvegicus). Briefly: Antagonist activity at UT receptor in Sprague-Dawley rat thoracic aortic ring assessed as reduction in urotensin-2-induced contraction by measuring pEC50 for human urotensin-2-induced contraction at 1 uM pre-incubated for 30 mins before urotensin-2 stimulation (reference value: 8.59 +/- 0.12). Format: functional.
Test [4] has the same target. Briefly: Antagonist activity at UT receptor in Sprague-Dawley rat thoracic aortic ring assessed as reduction in urotensin-2-induced contraction by measuring Emax for human urotensin-2-induced contraction at 1 uM pre-incubated for 30 mins before urotensin-2 stimulation relative to KCl-induced contraction (reference value: 101 +/- 4%). Type of test: functional.
Test [5] shares this target. Briefly: Antagonist activity at UT receptor in Sprague-Dawley rat thoracic aortic ring assessed as reduction in URP-induced contraction by measuring pEC50 for […] at 1 uM pre-incubated for 30 mins […] (reference value: 8.16 +/- 0.08). Type of test: functional.
The target is the same in test [6]. The test can be described thus: Antagonist activity at UT receptor in Sprague-Dawley rat thoracic aortic ring assessed as reduction in URP-induced contraction by measuring Emax for […] at 1 uM pre-incubated for 30 mins […] relative to KCl-induced contraction (reference value: 107 +/- 3%). Format: functional.

Test [7] addresses T1, Urotensin-2 receptor. The test can be described thus: Agonist activity at human UT receptor expressed in HEK293 cells co-expressing Gq-polycistronic BRET biosensor assessed as induction of Gq activation measured for 5 mins by luminescence detection based BRET assay. Format: functional, cell-based. A general note: In BRET a luciferase serves as donor, and the signal depends on an acceptor being close.

The target of test [8] is T3, Urotensin-2 receptor (Homo sapiens) (UniProt Q9UKP6).
T3 sequence (whole entry): T1 sequence (Q9UKP6 whole entry)
The test can be described thus: Agonist activity at human UT receptor expressed in HEK293 cells co-expressing Gq-polycistronic BRET biosensor assessed as induction of Gq activation measured for 5 mins by luminescence detection based BRET assay relative to 10 uM URP. Format: functional, cell-based.

Test [9] concerns the target T1, Urotensin-2 receptor. The test can be described thus: Agonist activity at human UT receptor expressed in HEK293 cells co-expressing G12-polycistronic BRET biosensor assessed as induction of G12 activation measured for 5 mins by luminescence detection based BRET assay. Format: functional, cell-based.
In test [10] the target is T3, Urotensin-2 receptor (Homo sapiens). Briefly: Agonist activity at human UT receptor expressed in HEK293 cells co-expressing beta-arrestin1-polycistronic BRET biosensor assessed as induction of beta-arrestin1 recruitment measured for 5 mins by luminescence detection based BRET assay relative to 10 uM URP. Type of test: functional, cell-based.
Test [11] has the same target. The test can be described thus: Selectivity index, change in deltalog(Tau/KA) for agonist activity at human UT receptor expressed in HEK293 cells co-expressing G12-polycistronic BRET biosensor assessed as induction of G12 activation by luminescence detection based BRET assay to deltalog(Tau/KA) for agonist activity at human UT receptor expressed in HEK293 cells co-expressing Gq-polycistronic BRET biosensor assessed as induction of Gq activation by luminescence detection based BRET assay. Format: functional, cell-based.

Test [12] shares this target. The test can be described thus: Bias factor, ratio of deltalog(Tau/KA) for agonist activity at human UT receptor expressed in HEK293 cells co-expressing Gq-polycistronic BRET biosensor assessed as induction of Gq activation by luminescence detection based BRET assay to deltalog(Tau/KA) for agonist activity at human UT receptor expressed in HEK293 cells co-expressing G12-polycistronic BRET biosensor assessed as induction of G12 activation by luminescence detection based BRET assay. Type of test: functional, cell-based.

Test [13] shares this target. The test can be described thus: Selectivity index, change in deltalog(Tau/KA) for agonist activity at human UT receptor expressed in HEK293 cells co-expressing Gq-polycistronic BRET biosensor assessed as induction of Gq activation by luminescence detection based BRET assay to deltalog(Tau/KA) for agonist activity at human UT receptor expressed in HEK293 cells co-expressing beta-arrestin1-polycistronic BRET biosensor assessed as induction of beta-arrestin1 recruitment by luminescence detection based BRET assay. Type of test: functional, cell-based.

The target is the same in test [14]. Briefly: Bias factor, ratio of deltalog(Tau/KA) for agonist activity at human UT receptor expressed in HEK293 cells co-expressing Gq-polycistronic BRET biosensor assessed as induction of Gq activation by luminescence detection based BRET assay to deltalog(Tau/KA) for agonist activity at human UT receptor expressed in HEK293 cells co-expressing beta-arrestin1-polycistronic BRET biosensor assessed as induction of beta-arrestin1 recruitment by luminescence detection based BRET assay. Type of test: functional, cell-based.

Test [15] has the same target. The test can be described thus: Selectivity index, change in deltalog(Tau/KA) for agonist activity at human UT receptor expressed in HEK293 cells co-expressing beta-arrestin1-polycistronic BRET biosensor assessed as induction of beta-arrestin1 recruitment by luminescence detection based BRET assay to deltalog(Tau/KA) for agonist activity at human UT receptor expressed in HEK293 cells co-expressing G12-polycistronic BRET biosensor assessed as induction of G12 activation by luminescence detection based BRET assay to. Type of test: functional, cell-based.

Test [16] shares this target. The test can be described thus: Bias factor, ratio of deltalog(Tau/KA) for agonist activity at human UT receptor expressed in HEK293 cells co-expressing beta-arrestin1-polycistronic BRET biosensor assessed as induction of beta-arrestin1 recruitment by luminescence detection based BRET assay to deltalog(Tau/KA) for agonist activity at human UT receptor expressed in HEK293 cells co-expressing G12-polycistronic BRET biosensor assessed as induction of G12 activation by luminescence detection based BRET assay. Type of test: functional, cell-based.

At Urotensin-2 receptor [1], `CC(C)[C@H](NC(=O)[C@@H]1CSSC[C@H](NC(=O)[C@H](C)N)C(=O)N[C@@H](Cc2ccc(C#Cc3ccccc3)cc2)C(=O)N[C@@H](Cc2c[nH]c3ccccc23)C(=O)N[C@@H](CCCCN)C(=O)N[C@@H](Cc2ccc(O)cc2)C(=O)N1)C(=O)O` gave a half-maximal inhibitory concentration (IC50) of 26.9 nM. Further, the maximum response (Emax) in test [2] amounted to 28%; in [4], 15%; in test [6], 25%; in test [8], 102%; in test [10], 94%. In addition, the pEC50 result in test [3] and in test [5] was “Active” in each case. Further, the 50% effective concentration (EC50) at Urotensin-2 receptor [7] was 27.5 nM; on Urotensin-2 receptor [9] it was 148 nM. In test [11], the deltalog(Tau/KA) turned out to be 0.24. The fold change (FC) stood at 0.6 in test [12], 0.9 in test [14] and 0.6 in test [16]. The selectivity index, deltadeltalog(Tau/KA) in [13] is -0.03. Further, the deltadeltalog(Tau/KA) (beta-arrestin1 selectivity index) in test [15] is -0.22.
On to `CC(C)[C@H](NC(=O)[C@@H]1CSSC[C@H](NC(=O)[C@H](C)N)C(=O)N[C@@H](Cc2ccc(-c3ccccc3)cc2)C(=O)N[C@@H](Cc2c[nH]c3ccccc23)C(=O)N[C@@H](CCCCN)C(=O)N[C@@H](Cc2ccc(O)cc2)C(=O)N1)C(=O)O`, for which the IC50 on Urotensin-2 receptor [1] is 5.37 nM. Besides, the Emax in [2] came to 25%; in test [4] it was 23%; in test [6], 31%; in test [8], 91%; in test [10] it was 76%. Further, the pEC50 result in test [3] and in test [5] was “Active” in each case. Also, the EC50 was 15.1 nM at Urotensin-2 receptor [7] and 120 nM at Urotensin-2 receptor [9]. For the same compound, in test [11], the deltalog(Tau/KA) amounted to 0.15. For the same compound, the fold change (FC) was determined as 0.7 in test [12], 2.8 in [14] and 0.3 in test [16]. The selectivity index, deltadeltalog(Tau/KA) in test [13] is 0.45. Besides, in test [15], the deltadeltalog(Tau/KA) (beta-arrestin1 selectivity index) is -0.6.
